{
  "source": "patent US11319305B2",
  "about": "“Pyrimidine sulfamide derivative and preparation method and medical application thereof” (SHIJIAZHUANG SAGACITY NEW DRUG DEVELOPMENT CO., LTD., priority 2017, dated 2022)",
  "key": {"CYP3A4": {"target": "T1, CYP3A4 (Homo sapiens, UniProt P08684)", "T1 construct": "Mixed human liver microsomes (HLM) were purchased from Corning Inc; tissue Corning Inc; host or cells: pooled human liver microsomes", "T1 sequence (P08684 whole entry)": "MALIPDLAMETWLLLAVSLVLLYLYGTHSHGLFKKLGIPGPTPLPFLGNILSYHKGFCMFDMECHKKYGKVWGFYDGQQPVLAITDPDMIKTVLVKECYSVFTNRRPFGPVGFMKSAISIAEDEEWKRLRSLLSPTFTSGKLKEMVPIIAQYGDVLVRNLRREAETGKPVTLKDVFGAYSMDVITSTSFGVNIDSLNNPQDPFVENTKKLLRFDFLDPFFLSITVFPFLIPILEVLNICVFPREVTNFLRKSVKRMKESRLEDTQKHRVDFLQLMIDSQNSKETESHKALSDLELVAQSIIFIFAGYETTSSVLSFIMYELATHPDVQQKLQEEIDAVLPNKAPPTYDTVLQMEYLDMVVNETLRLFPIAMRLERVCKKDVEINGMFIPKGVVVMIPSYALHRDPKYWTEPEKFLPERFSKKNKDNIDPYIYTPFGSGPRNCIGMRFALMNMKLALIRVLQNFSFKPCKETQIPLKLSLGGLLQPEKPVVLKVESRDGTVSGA", "assay": "Human liver microsomal cytochrome P450 isozyme inhibition assay, CYP3A4", "format": "in vitro ADME", "settings": "human liver microsomes", "description": "(§1) Experimental Embodiment 4: Human Liver Microsomal Cytochrome P450 Isozyme Inhibition Assay The purpose of the assay was to evaluate the inhibitory activity of the samples against human liver microsomal cytochrome P450 isozyme (CYP1A2, CYP2C9, CYP2C19, CYP2D6 and CYP3A4) using the 5-in-1 probe substrate of the CYP isozyme. Mixed human liver microsomes (HLM) were purchased from Corning Inc. (Steuben, N.Y., USA) and stored below −80° C. before use. The test compound working solution which has been diluted into serial concentrations was added to an incubation system containing human liver microsomes, probe substrates and circulating system cofactors, and a control containing solvent without the test compound was used as the enzyme activity control (100%). The concentration of the metabolite produced by the probe substrate in the sample was determined using a liquid chromatography-tandem mass spectrometry (LC-MS/MS) method. Nonlinear regression analysis was performed on the average percent activity versus concentration of subjects using SigmaPlot (V.11). The IC50 value was calculated by a three-parameter or four-parameter inverse-logarithmic equation."}, "CYP1A2": {"target": "T2, CYP1A2 (Homo sapiens, UniProt P05177)", "T2 construct": "Mixed human liver microsomes (HLM) were purchased from Corning Inc; tissue Corning Inc; host or cells: pooled human liver microsomes", "T2 sequence (P05177 1-516)": "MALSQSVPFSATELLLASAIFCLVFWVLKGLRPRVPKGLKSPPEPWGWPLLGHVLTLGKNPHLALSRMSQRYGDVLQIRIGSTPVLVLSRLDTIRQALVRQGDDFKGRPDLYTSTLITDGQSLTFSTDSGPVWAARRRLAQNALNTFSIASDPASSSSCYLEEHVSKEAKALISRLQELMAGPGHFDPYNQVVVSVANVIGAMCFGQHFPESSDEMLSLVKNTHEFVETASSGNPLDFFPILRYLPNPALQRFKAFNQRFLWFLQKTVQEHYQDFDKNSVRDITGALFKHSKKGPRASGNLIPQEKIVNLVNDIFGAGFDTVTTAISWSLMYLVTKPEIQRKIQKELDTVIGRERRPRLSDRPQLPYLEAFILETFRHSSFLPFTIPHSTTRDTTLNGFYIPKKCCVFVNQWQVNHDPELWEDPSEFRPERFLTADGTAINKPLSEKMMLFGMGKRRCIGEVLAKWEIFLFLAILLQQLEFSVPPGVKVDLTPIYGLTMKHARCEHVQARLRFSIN", "assay": "Human liver microsomal cytochrome P450 isozyme inhibition assay, CYP1A2", "format": "in vitro ADME", "settings": "human liver microsomes", "description": "as §1"}, "[1]": {"target": "T3, Human Pregnane X Receptor (PXR) (Homo sapiens, UniProt O75469)", "T3 construct": "host or cells: DPX2 cells", "T3 sequence (O75469 1-434)": "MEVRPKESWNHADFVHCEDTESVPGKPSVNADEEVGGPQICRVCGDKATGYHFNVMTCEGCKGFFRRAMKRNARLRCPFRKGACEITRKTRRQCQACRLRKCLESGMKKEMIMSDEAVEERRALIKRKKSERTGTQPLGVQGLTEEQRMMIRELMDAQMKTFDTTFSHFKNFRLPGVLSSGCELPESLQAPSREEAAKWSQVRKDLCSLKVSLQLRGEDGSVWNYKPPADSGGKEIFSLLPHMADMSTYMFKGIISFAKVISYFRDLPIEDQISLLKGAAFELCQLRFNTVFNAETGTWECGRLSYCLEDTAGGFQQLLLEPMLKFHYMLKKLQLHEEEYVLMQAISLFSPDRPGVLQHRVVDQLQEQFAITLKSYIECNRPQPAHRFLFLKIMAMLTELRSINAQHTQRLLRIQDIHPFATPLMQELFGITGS", "assay": "Human pregnane X receptor (PXR) assay, induction of PXR-mediated CYP3A expression in DPX2 cells", "format": "cell-based", "description": "Experimental Embodiment 3: Human Pregnane X Receptor (PXR) Assay\nThe effect of the compounds on the induction of PXR-mediated CYP3A expression was evaluated.\n1. DPX2 cells were thawn under sterile conditions.\n2. DPX2 cell solution was distributed in 96-well plate (100 μL/well), and the plate was placed in a 5% CO2/37° C. incubator overnight.\n3. Quantitative feeding medium was thawn in a 37° C. water bath. Positive control rifampin was thawn at room temperature. A series of test compounds and positive control dilutions were prepared in quantitative feeding medium. The cells were carefully aspirated from each wells without disturbing the cells during aspiration and the medium was discarded. 100 μL of each test compound concentration was transferred to pre-labeled wells. The operation of the positive control group and the blank group were the same. The plate was placed back into the incubator for 24 hours exposure.\n(1) 7 μL of Luciferin-IPA was added to […] feeding medium, the mixture was mixed by inverting, and poured into a Luciferin-IPA reagent tank.\n(2) The 96-well plate was taken out from the incubator, and the media was carefully aspirated from each wells. 50 μL of the Luciferin-IPA reagent was added to each wells, and the cell plate was placed back into the incubator for 60 minutes.\n(3) During incubation, the P450-Glo buffer was poured into the Luciferin detection reagent, and the mixture was mixed by inverting.\n(4) The 96-well plate was taken out from the incubator, and 40 μL of solution from each well was transferred into the corresponding white 96-well plate, and the corresponding position of each wells was consistent with the original cell plate. […]\n(8) After incubation with Luciferin detection reagent for 20 minutes, a photometer (set 1-5 seconds. Readout Time) was used to measure the luminescence of each wells of the white 96-well plate. […]\n(10) After incubating for 60 minutes at 37° C., the original 96-well plate was taken out of the incubator. The reader was set to the fluorescence mode, the excitation wavelength was set to 380-400 nm, the emission wavelength was set to 505 nm, and the fluorescence intensity of each wells was measured.\n(11) The cell plate was taken out of the enzyme reader, and 100 μL of ONE-Glo™ detection reagent was added to each wells. […]\n(12) The enzyme reader was set to 5 seconds for pre-shaking and 5 seconds for wells reading, and the fluorescence intensity in each hole was measured. […]\nThe positive control was rifampicin, six concentrations were tested in each experiment. The data was analyzed using Prism to generate a concentration-response curve and the EC50 value of the compound was calculated."}, "CYP2D6": {"target": "T4, CYP2D6 (Homo sapiens, UniProt P10635)", "T4 construct": "Mixed human liver microsomes (HLM) were purchased from Corning Inc; tissue Corning Inc; host or cells: pooled human liver microsomes", "T4 sequence (P10635 whole entry)": "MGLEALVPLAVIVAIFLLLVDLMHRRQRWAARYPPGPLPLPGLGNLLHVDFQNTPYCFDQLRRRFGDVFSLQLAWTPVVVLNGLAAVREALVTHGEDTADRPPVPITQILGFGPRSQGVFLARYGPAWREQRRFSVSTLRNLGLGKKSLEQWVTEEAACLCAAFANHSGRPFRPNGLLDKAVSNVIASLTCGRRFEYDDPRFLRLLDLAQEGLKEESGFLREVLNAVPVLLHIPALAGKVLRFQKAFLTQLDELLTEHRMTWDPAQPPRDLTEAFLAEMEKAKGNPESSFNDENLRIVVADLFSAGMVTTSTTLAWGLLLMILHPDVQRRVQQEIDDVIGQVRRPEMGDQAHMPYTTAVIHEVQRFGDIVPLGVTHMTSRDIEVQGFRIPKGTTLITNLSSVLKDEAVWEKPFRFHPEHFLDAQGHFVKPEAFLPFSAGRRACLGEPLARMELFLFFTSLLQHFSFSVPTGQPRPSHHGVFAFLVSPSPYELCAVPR", "assay": "Human liver microsomal cytochrome P450 isozyme inhibition assay, CYP2D6", "format": "in vitro ADME", "settings": "human liver microsomes", "description": "as §1"}},
  "data": [
    {"smiles": "COCCNS(=O)(=O)Nc1ncnc(OCCOc2ncc(Br)cn2)c1-c1ccc2c(c1)OCO2", "note": "[WX013]", "values": [
      {"measurement": "IC50", "setting": "CYP3A4", "value": 18, "unit": "µM"},
      {"measurement": "IC50", "setting": "CYP1A2", "value": 47, "unit": "µM"},
      {"measurement": "induction effect on PXR-mediated CYP3A expression (in words)", "setting": "[1]", "value": "relatively weak induction effect"},
      {"measurement": "EC50", "setting": "[1]; DPX2 cells, 24 hours exposure, ± is calculation error of simulation curve, read-out: EC50, induction effect on PXR-mediated CYP3A expression", "value": "27.6 ± 1.33", "unit": "µM"},
      {"measurement": "IC50", "setting": "CYP2D6", "value": "> 50", "unit": "µM"}
    ]}
  ]
}
